Experimental data taken from patent US20090018111A1, “Novel Antimicrobial Medicament” (priority 2004, published 2009).
Read-outs that look alike come from different tables or passages of the source.

Key:
Assay in all cases: Sensitivity test (agar dilution), clinical isolate
[1] = test system: Acinetobacter spp. Jan-81; format: cell-based, Acinetobacter calcoaceticus and Acinetobacter lwoffi
Method: (§1) In addition, the antibacterial activities were tested against strains which are comparatively less sensitive to β-lactam compounds, namely clinically isolated 13 strains of Acinetobacter calcoaceticus and Acinetobacter lwoffi, clinically isolated 11 strains of Serratia marcescens, clinically isolated 12 strains of Burkholderia cepacia, and clinically isolated 15 strains of Pseudomonas aeruginosa.
(§2) According to the standard method of Japan Chemotherapeutic Society (Chemotherapy, vol. […], p 76-79 (1981)) the test was carried out using the agar dilution method. After dissolving test samples in distilled water, agar medium containing the test samples was prepared in such a manner that the final concentration became twice serial dilution by pouring serially diluted combination drug solution or a single drug solution into agar medium. As agar medium was used Mueller Hinton Agar medium (MHA). Then, each strain was cultivated over night at 37° C. in an incubator and suspended in buffered saline solution with gelatin (BSG) in the concentration of about 10^6 CFU/ml. The suspension (about 5 μl) containing test strains was inoculated to the medium containing the test samples by Micro Planter.
(§3) Each drug was weighed, and dissolved in distilled water to give a test sample. When the drugs are used in combination, two kinds of solution containing each drug were mixed so as to be various ratio of concentration to give a mixed solution. When the sample is subjected to sensitivity test, this mixed solution was diluted by twice serial dilution method.
(§4) Furthermore, when the drug is solely used, each test sample was used as it is, and diluted by twice serial dilution method from the maximum concentration to the minimum concentration.

[2] = test system: Acinetobacter spp. Jan-54; format: cell-based, Acinetobacter calcoaceticus and Acinetobacter lwoffi
Method: as §1, §2, §3, §4

[3] = test system: Acinetobacter spp. 1338-2; format: cell-based, Acinetobacter calcoaceticus and Acinetobacter lwoffi
Method: as §1, §2, §3, §4

[4] = test system: Acinetobacter spp. Jan-99; format: cell-based, Acinetobacter calcoaceticus and Acinetobacter lwoffi
Method: as §1, §2, §3, §4

[5] = test system: Acinetobacter spp. 256; format: cell-based, Acinetobacter calcoaceticus and Acinetobacter lwoffi
Method: as §1, §2, §3, §4

[6] = test system: Acinetobacter spp. 1398-2; format: cell-based, Acinetobacter calcoaceticus and Acinetobacter lwoffi
Method: as §1, §2, §3, §4

[7] = test system: Acinetobacter spp. 1399-2; format: cell-based, Acinetobacter calcoaceticus and Acinetobacter lwoffi
Method: as §1, §2, §3, §4

[8] = test system: Acinetobacter spp. 227-1; format: cell-based, Acinetobacter calcoaceticus and Acinetobacter lwoffi
Method: as §1, §2, §3, §4

[9] = test system: Acinetobacter spp. 1198; format: cell-based, Acinetobacter calcoaceticus and Acinetobacter lwoffi
Method: as §1, §2, §3, §4

[10] = test system: Acinetobacter spp. 14712; format: cell-based, Acinetobacter calcoaceticus and Acinetobacter lwoffi
Method: as §1, §2, §3, §4

[11] = test system: Acinetobacter spp. Jan-99 (second line, r15); format: cell-based, Acinetobacter calcoaceticus and Acinetobacter lwoffi
Method: as §1, §2, §3, §4

[12] = test system: Acinetobacter spp. 1195; format: cell-based, Acinetobacter calcoaceticus and Acinetobacter lwoffi
Method: as §1, §2, §3, §4

[13] = test system: Acinetobacter spp. 175; format: cell-based, Acinetobacter calcoaceticus and Acinetobacter lwoffi
Method: as §1, §2, §3, §4

[14] = test system: B. cepacia 257-1; format: cell-based, Burkholderia cepacia
Method: as §1, §2, §3, §4

[15] = test system: B. cepacia 7438; format: cell-based, Burkholderia cepacia
Method: as §1, §2, §3, §4

C[C@@H](O)[C@H]1C(=O)N2C(C(=O)O)=C(S[C@@H]3CN[C@H](C(=O)N(C)C)C3)[C@H](C)[C@H]12 [MEPM, meropenem]
MIC ([1]; Concomitant (ME:SM = 1:1)): 8 µg/mL | MIC ([1]; Concomitant (ME:SM = 1:2)): 2 µg/mL | MIC ([1]; Concomitant (ME:SM = 1:4)): 2 µg/mL | MIC ([1]; Concomitant (ME:SM = 2:1)): 4 µg/mL | MIC ([1]; alone): 4 µg/mL | MIC ([2]; Concomitant (ME:SM = 1:1)): 0.5 µg/mL | MIC ([2]; Concomitant (ME:SM = 1:2)): 0.5 µg/mL | MIC ([2]; Concomitant (ME:SM = 1:4)): 0.25 µg/mL | MIC ([2]; Concomitant (ME:SM = 2:1)): 0.5 µg/mL | MIC ([2]; alone): 1 µg/mL | MIC ([3]; SPP.13382): 0.125 µg/mL | MIC ([3]; SPP.13382, Concomitant (ME:SM = 1:1), read-out: MIC): 0.5 µg/mL | MIC ([3]; SPP.13382, Concomitant (ME:SM = 1:2), read-out: MIC): 0.5 µg/mL | MIC ([3]; SPP.13382, Concomitant (ME:SM = 2:1), read-out: MIC): 0.5 µg/mL | MIC ([3]; SPP.13382, alone, read-out: MIC): 1 µg/mL | MIC ([4]; Acinetobacter): 0.125 µg/mL | MIC ([4]; Acinetobacter, Concomitant (ME:SM = 1:1), read-out: MIC): 0.25 µg/mL | MIC ([4]; Acinetobacter, Concomitant (ME:SM = 2:1), read-out: MIC): 0.25 µg/mL | MIC ([4]; Acinetobacter, alone, read-out: MIC): 0.25 µg/mL | MIC ([4]; Concomitant (ME:SM = 1:2)): 0.125 µg/mL | MIC ([5]; SPP.256, Concomitant (ME:SM = 1:1)): 0.5 µg/mL | MIC ([5]; SPP.256, Concomitant (ME:SM = 1:2)): 0.5 µg/mL | MIC ([5]; SPP.256, Concomitant (ME:SM = 1:4)): 0.25 µg/mL | MIC ([5]; SPP.256, Concomitant (ME:SM = 2:1)): 0.5 µg/mL | MIC ([5]; SPP.256, alone): 1 µg/mL | MIC ([6]; SPP.13982, Concomitant (ME:SM = 1:1)): 2 µg/mL | MIC ([6]; SPP.13982, Concomitant (ME:SM = 1:2)): 2 µg/mL | MIC ([6]; SPP.13982, Concomitant (ME:SM = 1:4)): 1 µg/mL | MIC ([6]; SPP.13982, Concomitant (ME:SM = 2:1)): 4 µg/mL | MIC ([6]; SPP.13982, alone): 32 µg/mL | MIC ([7]; SPP.13992, Concomitant (ME:SM = 1:1)): 0.5 µg/mL | MIC ([7]; SPP.13992, Concomitant (ME:SM = 1:2)): 0.5 µg/mL | MIC ([7]; SPP.13992, Concomitant (ME:SM = 1:4)): 0.25 µg/mL | MIC ([7]; SPP.13992, Concomitant (ME:SM = 2:1)): 0.5 µg/mL | MIC ([7]; SPP.13992, alone): 0.5 µg/mL | MIC ([8]; SPP.2271, Concomitant (ME:SM = 1:1)): 0.5 µg/mL | MIC ([8]; SPP.2271, Concomitant (ME:SM = 1:2)): 0.5 µg/mL | MIC ([8]; SPP.2271, Concomitant (ME:SM = 1:4)): 0.25 µg/mL | MIC ([8]; SPP.2271, Concomitant (ME:SM = 2:1)): 0.5 µg/mL | MIC ([8]; SPP.2271, alone): 1 µg/mL | MIC ([9]; SPP.1198): 0.125 µg/mL | MIC ([9]; SPP.1198, Concomitant (ME:SM = 1:1), read-out: MIC): 0.25 µg/mL | MIC ([9]; SPP.1198, Concomitant (ME:SM = 1:4), read-out: MIC): 0.063 µg/mL | MIC ([9]; SPP.1198, Concomitant (ME:SM = 2:1), read-out: MIC): 0.25 µg/mL | MIC ([9]; SPP.1198, alone, read-out: MIC): 0.5 µg/mL | MIC ([10]; SPP.14712, Concomitant (ME:SM = 1:1)): 0.5 µg/mL | MIC ([10]; SPP.14712, Concomitant (ME:SM = 1:2)): 0.5 µg/mL | MIC ([10]; SPP.14712, Concomitant (ME:SM = 1:4)): 0.25 µg/mL | MIC ([10]; SPP.14712, Concomitant (ME:SM = 2:1)): 0.5 µg/mL | MIC ([10]; SPP.14712, alone): 1 µg/mL | MIC [11]: 0.125 µg/mL | MIC ([11]; Concomitant (ME:SM = 1:1), read-out: MIC): 0.5 µg/mL | MIC ([11]; Concomitant (ME:SM = 1:2), read-out: MIC): 0.25 µg/mL | MIC ([11]; Concomitant (ME:SM = 2:1), read-out: MIC): 0.5 µg/mL | MIC ([11]; alone, read-out: MIC): 0.5 µg/mL | MIC ([12]; SPP.1195): 0.125 µg/mL | MIC ([12]; SPP.1195, Concomitant (ME:SM = 1:1), read-out: MIC): 0.25 µg/mL | MIC ([12]; SPP.1195, Concomitant (ME:SM = 1:4), read-out: MIC): 0.063 µg/mL | MIC ([12]; SPP.1195, Concomitant (ME:SM = 2:1), read-out: MIC): 0.25 µg/mL | MIC ([12]; SPP.1195, alone, read-out: MIC): 0.25 µg/mL | MIC ([13]; Acinetobacter, SPP.175): 0.125 µg/mL | MIC ([13]; Acinetobacter, SPP.175, Concomitant (ME:SM = 1:2), read-out: MIC): 0.063 µg/mL | MIC ([13]; Acinetobacter, SPP.175, Concomitant (ME:SM = 1:4), read-out: MIC): 0.063 µg/mL | MIC ([13]; Concomitant (ME:SM = 1:1)): 0.125 µg/mL | MIC ([13]; Concomitant (ME:SM = 2:1)): 0.125 µg/mL | MIC ([14]; Burkholderia cepacia, 2571, Concomitant (ME:SM = 1:1)): 0.5 µg/mL | MIC ([14]; Burkholderia cepacia, 2571, Concomitant (ME:SM = 1:2)): 0.25 µg/mL | MIC ([14]; Burkholderia cepacia, 2571, Concomitant (ME:SM = 1:4)): 0.25 µg/mL | MIC ([14]; Burkholderia cepacia, 2571, Concomitant (ME:SM = 2:1)): 0.5 µg/mL | MIC ([14]; Burkholderia cepacia, 2571, alone): 0.5 µg/mL | MIC ([15]; Burkholderia cepacia, 7438, Concomitant (ME:SM = 1:1)): 2 µg/mL | MIC ([15]; Burkholderia cepacia, 7438, Concomitant (ME:SM = 1:2)): 1 µg/mL | MIC ([15]; Burkholderia cepacia, 7438, Concomitant (ME:SM = 1:4)): 2 µg/mL | MIC ([15]; Burkholderia cepacia, 7438, Concomitant (ME:SM = 2:1)): 2 µg/mL | MIC ([15]; Burkholderia cepacia, 7438, alone): 2 µg/mL
